Experimental data from patent US5187171A (G. D. Searle & Co., priority 1989, dated 1993).

How the values were obtained:
[1] = biological target: T1, NMDA receptor-associated glycine recognition site ("Glycine B receptor") (Rattus norvegicus, UniProt P35439); test: TCP modulation assay (stimulation of [3H]TCP binding); format: biochemical; details: basal [3H]TCP binding
T1 construct: synaptic plasma membranes (SPM) prepared from rat forebrain; from tissue; host or cells: rat forebrain (male Sprague-Dawley, animals from Sasco) synaptic plasma membranes, Triton X-100 washed
Method: [^3 H]TCP binding was performed using Triton X-100 washed synaptic plasma membranes (SPM) prepared from rat forebrain (30-45 day old, male Sprague-Dawley; Sasco, St. Charles, Mo.) as described previously [J. W. Thomas, W. F. Hood, J. B. Monahan, P. C. Contreras and T. L. O'Donohue, Brain Res., 442, 396-398 (1988)]. […] The samples were then filtered through glass fiber filters (Schleicher and Schuell #32) which were pretreated with 0.05% (v/v) polyethylenimine. The filters were washed and the radioactivity quantitated by liquid scintillation spectrometry. […] The EC50 values for the stimulation of [^3 H]TCP binding were determined using a four parameter logistic regression analysis.

[2] = test system: mentally disturbed patients; details: 500 mg per day, cited from earlier work

N[C@@H]1CONC1=O [D-cycloserine, 4-amino-3-isoxazolidone]
Maximal stimulation of [3H]TCP binding compared with glycine and D-serine [1]: significantly less than that produced by both glycine and D-serine | Clinical response ([2]; mentally disturbed patients): improvements in depression, insomnia, anexoria or tension were found for some patients | Clinical response of patients suffering from severe neurosis or psychosis [2]: responded poorly
